Source: US12356984B2, “Paraquat formulation” (priority 2018, dated 2025)

Test: Compatibility (precipitation) of polyvinylalcohol-acetate copolymer with charged active ingredients
Type: physicochemical
Conditions: for Behaviour of polyvinylalcohol when formulated with the charged active ingredient: oil in water emulsion / solution of the active ingredient; for Formulability as oil-in-water emulsion (EW): Mowiol 4-88/SPAN 40 and TWEEN 40 system
Description: One of the challenges faced when formulating pesticidal compositions is the compatibility of active ingredients with additional formulation ingredients, such as surfactants. This is especially a challenge when the active ingredient is highly charged.

CP(=O)(O)CCC(N)C(=O)O.N (stereo not shown) [Ammonium glufosinate]
Quantity at the maximum ratio of Mowiol 4-88 to glufosinate and water at which the copolymer does not precipitate (ammonium glufosinate / Mowiol 4-88 (20% w/w in water) / water 90.15% w/w): 8.49 % w/w

C[n+]1ccc(-c2cc[n+](C)cc2)cc1 [paraquat]
Behaviour of polyvinylalcohol when formulated with the charged active ingredient: readily dissolves

O=C(O)CNCP(=O)([O-])O.[K+] [Potassium glyphosate]
Quantity at the maximum ratio of Mowiol 4-88 to glyphosate and water at which the copolymer does not precipitate (potassium glyphosate / Mowiol 4-88 (20% w/w in water) / water 93.48% w/w): 5.76 % w/w

O=C(O)CNCP(=O)(O)O [glyphosate]
Formulability as oil-in-water emulsion (EW): cannot be formulated as an EW at a commercially acceptable concentration | Behaviour of polyvinylalcohol when formulated with the charged active ingredient: precipitates out of solution

CP(=O)(O)CCC(N)C(=O)O (stereo not shown) [glufosinate]
Formulability as oil-in-water emulsion (EW): cannot be formulated as an oil-in-water emulsion (EW) at a commercially acceptable concentration | Behaviour of polyvinylalcohol when formulated with the charged active ingredient: precipitates out of solution
